Reference: paper PMC9629815, “MK256 is a novel CDK8 inhibitor with potent antitumor activity in AML through downregulation of the STAT pathway” (Oncotarget, 2022)

Key:
[1] = Histological analysis (H&E) of major organs after 21 days treatment; assay type: in vivo, mice; details: 100 mg/kg, q.d., oral
Protocol: To evaluate the behavior of MK256 in vivo we did a full pharmacokinetics (PK) analysis of MK256 in mice. […] In the MOLM-14 xenograft model, we treated mice with 10 mg/kg, 50 mg/kg and 100 mg/kg of MK256 for 6 hrs, after which tumors from each treatment group were harvested and processed for western blotting analysis. […] We also performed a histological analysis of the major organs (bone, brain, heart, intestine, kidney, liver and lung) of mice after they were treated with 100 mg/kg of MK256 for 21 days (q.d, oral) (Figure 8). […] In summary, MK256 offered a desirable solubility, permeability, hepatocyte stability, toxicology, and pharmacokinetics/pharmacodynamics (PK/PD) profile.
Figure 8 Evaluation of the toxicity of MK256 in vivo. Histological data (H&E staining) obtained in the major organs (bone, brain, heart, intestine, kidney, liver, and lung) of the mice treated with MK256 (100 mg/kg, q.d., oral) for 21 days.

MCL-1 mRNA in KG-1 cells = test: Real-time RT-PCR of MCL-1 mRNA; assay type: cell-based
Protocol: (§1) Total RNA from the various cell lines was isolated using the RNeasy extraction method (Qiagen, Valencia, CA, USA). First-strand cDNA was synthesized from total RNA by iScript cDNA synthesis (Bio-Rad, Hercules, CA, USA) according to the manufacturer’s instructions. Taqman RT–PCR analysis was performed on cDNA in a 384-well plate, using a Prism 7900HT Real-Time PCR System (Applied Biosystems, Foster City, CA, USA). Primers and Taqman probes were purchased from Applied Biosystems. The expression of target genes MCL1 (Hs03043899_m1, Thermo fisher) and CCL2 (Hs00234140_m1, Thermo fisher) in each sample was assayed in triplicate and normalized to human GUSB for mRNA expression analysis. An unpaired t test was used to calculate statistical significance.

[2] = system: MCL-1 mRNA in MOLM-14 cells; test: Real-time RT-PCR of MCL-1 mRNA; assay type: cell-based
Protocol: as §1

MDR1 = test: MDCK-MDR1 permeability assay; assay type: in vitro ADME; details: dog, MDCK-MDR1, read-out: Efflux Ratio (B-A/A-B)
Protocol: (§2) MDCK-MDR1 cells were plated into 96-well Millipore Millicell-96 plates at 7,500 cells/75 μL/well and incubated for three days at 37°C with 5% CO2. Cells were washed with Hank’s Balanced Salt Solution (HBSS) with 5 mM HEPES for 30 minutes before the experiment began. MK256 was prepared by diluting DMSO stock into HBSS buffer, resulting in a final DMSO concentration of 0.1%. Prior to the experiment, cell monolayer integrity was verified by […] electrical resistance (TEER). The transport experiment was initiated by adding MK256 to the apical (75 μL) or basal (250 μL) side. Transport plates were incubated at 37°C in a humidified incubator with 5% CO2. Samples were taken from the donor and acceptor compartments after one hour and analyzed by liquid chromatography with tandem mass spectrometry (LC/MS/MS). Digoxin was used as reference control. Apparent permeability (Papp) values were calculated using the following equation: Papp = (dQ/dt)/A/C0, where dQ/dt is the initial rate of amount of test compound transported across the cell monolayer, A is the surface area of the filter membrane, and C0 is the initial concentration of the test compound, calculated for each direction using a 4-point calibration curve by LC/MS/MS. Net flux ratio between the two directional transports was calculated by the following equation: Ratio = Papp, B-A/Papp, A-B, where Papp, B-A and Papp, A-B represent the apparent permeability of test compound from the basal-to-apical and apical-to-basal side of the cellular monolayer, respectively. Recovery was calculated based on the compound concentration at the end of the experiment, compared to that at the beginning of the experiment, adjusted for volumes.

MDCK-MDR1 cells = test: MDCK-MDR1 permeability assay; assay type: in vitro ADME; details: 5 μM
Protocol: as §2

[3] = MDCK-MDR1 permeability assay; assay type: in vitro ADME; details: dog, MDCK-MDR1
Protocol: as §2

CYP2D6 = CYP2D6 (Homo sapiens, UniProt P10635); test: Cytochrome P450 inhibition assay; assay type: in vitro ADME; details: 50 uM
Sequence of CYP2D6 (P10635 whole entry): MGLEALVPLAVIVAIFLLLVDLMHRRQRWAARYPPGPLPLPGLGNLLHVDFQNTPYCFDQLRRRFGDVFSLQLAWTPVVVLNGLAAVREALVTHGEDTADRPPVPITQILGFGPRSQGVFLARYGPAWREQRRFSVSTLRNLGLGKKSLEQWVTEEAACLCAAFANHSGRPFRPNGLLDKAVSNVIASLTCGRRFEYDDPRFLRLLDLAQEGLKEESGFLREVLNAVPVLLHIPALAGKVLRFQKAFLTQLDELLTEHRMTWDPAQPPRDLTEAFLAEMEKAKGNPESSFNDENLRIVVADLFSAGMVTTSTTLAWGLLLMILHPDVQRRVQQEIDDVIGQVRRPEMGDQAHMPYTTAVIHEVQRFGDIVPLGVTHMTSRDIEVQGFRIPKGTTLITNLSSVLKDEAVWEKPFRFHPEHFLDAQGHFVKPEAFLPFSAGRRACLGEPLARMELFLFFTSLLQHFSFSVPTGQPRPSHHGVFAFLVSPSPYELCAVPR

CYP2C9 = CYP2C9 (Homo sapiens, UniProt P11712); test: Cytochrome P450 inhibition assay; assay type: in vitro ADME; details: 50 uM
Sequence of CYP2C9 (P11712 whole entry): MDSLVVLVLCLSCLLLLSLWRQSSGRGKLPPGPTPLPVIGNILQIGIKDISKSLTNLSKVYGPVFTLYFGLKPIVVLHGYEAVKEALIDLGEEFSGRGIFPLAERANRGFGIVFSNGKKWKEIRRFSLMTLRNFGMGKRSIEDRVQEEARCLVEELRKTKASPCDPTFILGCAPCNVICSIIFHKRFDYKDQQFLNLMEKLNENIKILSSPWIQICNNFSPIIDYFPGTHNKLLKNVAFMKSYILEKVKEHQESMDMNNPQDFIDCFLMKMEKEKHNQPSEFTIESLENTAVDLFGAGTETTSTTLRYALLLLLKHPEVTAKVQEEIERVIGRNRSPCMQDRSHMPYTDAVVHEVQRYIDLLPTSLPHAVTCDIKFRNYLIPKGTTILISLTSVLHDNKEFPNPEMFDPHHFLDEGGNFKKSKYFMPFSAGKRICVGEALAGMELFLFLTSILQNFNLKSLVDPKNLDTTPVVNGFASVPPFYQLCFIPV

## Nc1nccc2c(Br)cc3cc(C(=O)O)ccc3c12 [MK256]
[1]
  histology of major organs (bone, brain, heart, intestine, kidney, liver and lung): did not cause visible pathological changes
MCL-1 mRNA in KG-1 cells; 300 nM
  mRNA level decreased to: 25%
MCL-1 mRNA in KG-1 cells; 1 uM
  mRNA level decreased to: 30%
[2]; 300 nM
  MCL-1 mRNA level: barely changed
[2]; 1 uM
  MCL-1 mRNA level downregulated by: ~ 30%
MDR1
  efflux ratio at 1 h, 5 µM: 0.2
MDCK-MDR1 cells
  Recover rate (%): 96%
[3]
  Papp A→B at 1 h, 5 μM: 57 ×10⁻⁶ cm/s
  Papp B→A at 1 h, 5 μM: 14 ×10⁻⁶ cm/s
CYP2D6
  cytochrome P450 inhibition: no inhibition
CYP2C9
  cytochrome P450 inhibition: no inhibition
